Measurements: patent US12419865B2 (priority 2018, dated 2025)
Like-named read-outs stand apart in the source and are kept apart here.

Experiments:
[1] = 1 h, pH 7.4
[2] = guinea pig, 1 h, pH 7.4
[3] = 1 h, pH 7.4; remark: listed apart in the source
[4] = in vitro; settings: African green monkey
[5] = tested on: JUNV-p; assay: organism not typed; assay type: cell-based, Junin (JUNV); settings: Vero, read-out: JUNV-p EC50
[6] = tested on: LASV-p; assay: microbe, parasite or virus in culture; assay type: cell-based, Lassa (LASV); settings: Vesicular stomatitis virus, Vero, read-out: LASV-p EC50
[7] = tested on: MACV-p; assay: organism not typed; assay type: cell-based, Machupo (MACV); settings: Vero, read-out: MACV-p EC50
[8] = tested on: VSV-p; assay: microbe, parasite or virus in culture; assay type: cell-based; settings: Vesicular stomatitis virus, Vero, read-out: VSV-p EC50
[9] = tested on: TCRV-p; assay: organism not typed; assay type: cell-based; settings: read-out: TCRV-p EC50
[10] = tested on: native replicating Tacaribe (TCRV) virus; assay: microbe, parasite or virus in culture; assay type: cell-based; settings: Mammarenavirus tacaribeense, Vero, 120 h, read-out: TCRV EC50
[11] = tested on: replicative LASV; assay: microbe, parasite or virus in culture; assay type: cell-based, Lassa Virus; settings: for EC90: Mammarenavirus lassaense

Cc1c(-c2ccc(OC(C)C)cc2)ccc2nnn(-c3ccc(OC(C)C)cc3)c12 [Example C14, 1,6-bis(4-isopropoxyphenyl)-7-methyl-1H-benzo[d][1,2,3]triazole]
Percent parent compound remaining at 60 minutes in liver microsomes, Mouse [1]: >95% | Percent parent compound remaining at 60 minutes in liver microsomes, Guinea [2]: >95% | Percent parent compound remaining at 60 minutes in liver microsomes, Human [3]: >95% | CC50 [4]: > 100000 nM | EC50 [5]: 0.17 nM | EC50 [6]: 2.44 nM | EC50 [7]: 0.28 nM | EC50 [8]: > 10000 nM | EC50 ([9]; Vero): 4.7 nM

CC(C)Oc1ccc(-c2cc3c(cc2N)nnn3-c2ccc(OC(C)C)cc2)cc1 [Example C23, 1,6-bis(4-isopropoxyphenyl)-1H-benzo[d][1,2,3]triazol-5-amine]
CC50 [4]: 43000 nM | EC50 [5]: 0.29 nM | EC50 [6]: 6.72 nM | EC50 [7]: 0.53 nM | EC50 [8]: > 10000 nM | EC50 ([9]; Vero): 0.96 nM

Cc1nc2ncc(-c3ccc(C(C)(C)O)cc3)n2cc1-c1ccc(OC(C)C)cc1 [Example D29, 2-(4-(6-(4-isopropoxphenyl)-7-methylimidazo[1,2-a]pyrimidin-3-yl)phenyl)propan-2-ol]
CC50 [4]: 42100 nM | EC50 [5]: 1.03 nM | EC50 [6]: 1.84 nM | EC50 [7]: 0.87 nM | EC50 [8]: > 10000 nM | EC50 ([9]; Vero): 1.27 nM

CC(C)Oc1ccc(-c2ccc3nnn(-c4ccc(OC(C)C)cc4)c3c2F)cc1 [Example C12, 7-fluoro-1,6-bis(4-isopropoxyphenyl)-1H-benzo[d][1,2,3]triazole]
Percent parent compound remaining at 60 minutes in liver microsomes, Mouse [1]: 90.3% | Percent parent compound remaining at 60 minutes in liver microsomes, Guinea [2]: >95% | Percent parent compound remaining at 60 minutes in liver microsomes, Human [3]: >95% | CC50 [4]: > 100000 nM | EC50 [5]: 0.15 nM | EC50 [6]: 1.31 nM | EC50 [7]: 0.55 nM | EC50 [8]: > 10000 nM | EC50 ([9]; Vero): 15 nM

CC(C)Oc1ccc(-c2cc3c(cc2CN)nnn3-c2ccc(OC(C)C)cc2)cc1 [Example C22, (1,6-bis(4-isopropoxyphenyl)-1H-benzo[d][1,2,3]triazol-5-yl)methanamine]
EC50 [5]: > 25 nM | EC50 [6]: > 25 nM | EC50 [7]: > 25 nM | EC50 [8]: > 10000 nM | EC50 ([9]; Vero): > 25 nM

CC(C)Oc1ccc(-n2nnc3ccc(-c4cccc(OC(C)C)c4)cc32)cc1 [Example C18, 6-(3-isopropoxyphenyl)-1-(4-isopropoxyphenyl)-1H-benzo[d][1,2,3]triazole]
EC50 [5]: > 25 nM | EC50 [6]: > 25 nM | EC50 [7]: > 25 nM | EC50 [8]: > 10000 nM | EC50 ([9]; Vero): > 25 nM

Cc1nc2ncc(-c3ccc(OC(C)(C)C)cc3)n2cc1-c1ccc(OC(C)C)cc1 [Example D28, 3-(4-(tert-butoxy)phenyl)-6-(4-isopropoxyphenyl)-7-methylimidazo[1,2-a]pyrimidine]
CC50 [4]: 12300 nM | EC50 [5]: 0.4 nM | EC50 [6]: 0.3 nM | EC50 [7]: 0.31 nM | EC50 [8]: > 10000 nM | EC50 ([9]; Vero): 0.15 nM

CC(C)Oc1ccc(-c2cc3c(cc2C(N)=O)nnn3-c2ccc(OC(C)C)cc2)cc1 [Example C21, 1,6-bis(4-isopropoxyphenyl)-1H-benzo[d][1,2,3]triazole-5-carboxamide]
EC50 [5]: > 25 nM | EC50 [6]: > 25 nM | EC50 [7]: > 25 nM | EC50 [8]: > 10000 nM | EC50 ([9]; Vero): > 25 nM

COc1cc2nnn(-c3ccc(O)cc3)c2cc1-c1ccc(O)cc1 [Example C24, 4,4′-(5-methoxy-1H-benzo[d][1,2,3]triazole-1,6-diyl)diphenol]
CC50 [4]: 32200 nM | EC50 [5]: 19 nM | EC50 [6]: 4.62 nM | EC50 [7]: > 25 nM | EC50 [8]: > 10000 nM | EC50 ([9]; Vero): 18.4 nM

CC(C)Oc1ccc(-n2nnc3ccc(-c4ccc(C(C)(C)O)cc4)cc32)cc1 [Example C16, 2-(4-(1-(4-isopropoxyphenyl)-1H-benzo[d][1,2,3]triazol-6-yl)phenyl)propan-2-ol]
Percent parent compound remaining at 60 minutes in liver microsomes, Mouse [1]: 57.4% | Percent parent compound remaining at 60 minutes in liver microsomes, Guinea [2]: 61.9% | Percent parent compound remaining at 60 minutes in liver microsomes, Human [3]: 72.3% | CC50 [4]: 4120 nM | EC50 [5]: 0.45 nM | EC50 [6]: 3.02 nM | EC50 [7]: 1.72 nM | EC50 [8]: > 10000 nM | EC50 ([9]; Vero): 3.67 nM

CC(C)Oc1ccc(-c2cc3c(cc2C(=O)O)nnn3-c2ccc(OC(C)C)cc2)cc1 [Example C20, 1,6-bis(4-isopropoxyphenyl)-1H-benzo[d][1,2,3]triazole-5-carboxylic acid]
EC50 [5]: > 25 nM | EC50 [6]: > 25 nM | EC50 [7]: > 25 nM | EC50 [8]: > 10000 nM | EC50 ([9]; Vero): > 25 nM

CC(C)Oc1ccc(-c2cc3c(cc2CO)nnn3-c2ccc(OC(C)C)cc2)cc1 [Example C19, (1,6-bis(4-isopropoxyphenyl)-1H-benzo[d][1,2,3]triazol-5-yl)methanol]
CC50 [4]: 81700 nM | EC50 [5]: 0.75 nM | EC50 [6]: 22.5 nM | EC50 [7]: 3.82 nM | EC50 [8]: > 10000 nM | EC50 ([9]; Vero): 8 nM

CC(C)Oc1ccc(-c2cc3c(cc2F)nnn3-c2ccc(OC(C)C)cc2)cc1 [Example C13, 5-fluoro-1,6-bis(4-isopropoxyphenyl)-1H-benzo[d][1,2,3]triazole]
Percent parent compound remaining at 60 minutes in liver microsomes, Human [3]: 79.5% | CC50 [4]: > 100000 nM | EC50 [5]: 0.27 nM | EC50 [6]: 4 nM | EC50 [7]: 0.66 nM | EC50 [8]: > 10000 nM | EC50 ([9]; Vero): 1.53 nM

Cc1cc2ncn(-c3ccc(OC(C)C)cc3)c2cc1-c1ccc(C(C)(C)O)cc1 [Example A3, 2-(4-(1-(4-isopropoxyphenyl)-5-methyl-1H-benzo[d]imidazol-6-yl)phenyl)propan-2-ol]
EC50 [10]: 0.87 nM | Percent parent compound remaining at 60 minutes in liver microsomes, Mouse [1]: 25.4% | Percent parent compound remaining at 60 minutes in liver microsomes, Guinea [2]: 67.6% | Percent parent compound remaining at 60 minutes in liver microsomes, Human [3]: 89.9% | CC50 [4]: 4500 nM | EC50 [5]: 0.4 nM | EC50 [6]: 0.75 nM | EC50 [7]: 0.17 nM | EC50 [8]: > 10000 nM | EC50 ([9]; Vero): 0.24 nM | EC50 [9]: 0.21 nM

[2H]C([2H])([2H])C([2H])(Oc1ccc(-c2cn3c(-c4ccc(OC(C)(C)C)cc4)cnc3cc2C)cc1)C([2H])([2H])[2H] [Example E30, 3-(4-(tert-butoxy)phenyl)-6-(4-(isopropoxy-d7)phenyl)-7-methylimidazo[1,2-a]pyridine]
CC50 [4]: 3800 nM | Sl90 [11]: >1,510 | EC90 ([11]; Vero, read-out: VYR Assay EC90): < 14 nM | EC90 ([11]; read-out: EC90 in the VYR assay format): < 14 nM | EC50 [5]: 0.09 nM | EC50 [6]: 0.39 nM | EC50 [7]: 0.09 nM | EC50 [9]: 0.2 nM

COc1cc2nnn(-c3ccc(OC(C)C)cc3)c2cc1-c1ccc(OC(C)C)cc1 [Example C15, 1,6-bis(4-isopropoxyphenyl)-5-methoxy-1H-benzo[d][1,2,3]triazole]
CC50 [4]: 98400 nM | EC50 [5]: 3.06 nM | EC50 [6]: 23.4 nM | EC50 [7]: 7.09 nM | EC50 [8]: > 10000 nM | EC50 ([9]; Vero): 11.4 nM

COC(=O)c1cc2nnn(-c3ccc(OC(C)C)cc3)c2cc1-c1ccc(OC(C)C)cc1 [Example C10, methyl 1,6-bis(4-isopropoxyphenyl)-1H-benzo[d][1,2,3]triazole-5-carboxylate]
CC50 [4]: > 100000 nM | EC50 [5]: 11 nM | EC50 [6]: 20.6 nM | EC50 [7]: 4.05 nM | EC50 [8]: > 10000 nM | EC50 ([9]; Vero): 12.3 nM

Cc1cc2ncc(-c3ccc(OC(C)C)cc3)n2cc1-c1ccc(C(C)(C)O)cc1 [Example B5, 2-(4-(3-(4-isopropoxyphenyl)-7-methylimidazo[1,2-a]pyridin-6-yl)phenyl)propan-2-ol]
EC50 [10]: 0.88 nM | Percent parent compound remaining at 60 minutes in liver microsomes, Mouse [1]: 16.4% | Percent parent compound remaining at 60 minutes in liver microsomes, Guinea [2]: 7.4% | Percent parent compound remaining at 60 minutes in liver microsomes, Human [3]: 86.7% | CC50 [4]: 3870 nM | EC50 [5]: 0.18 nM | EC50 [6]: 0.53 nM | EC50 [7]: 0.16 nM | EC50 [8]: > 10000 nM | EC50 ([9]; Vero): 0.16 nM | EC50 [9]: 0.1 nM

CCc1cc2nnn(-c3ccc(OC(C)C)cc3)c2cc1-c1ccc(OC(C)C)cc1 [Example C26, 5-ethyl-1,6-bis(4-isopropoxphenyl)-1H-benzo[d][1,2,3]triazole]
CC50 [4]: 3590 nM | EC50 [5]: 0.1 nM | EC50 [6]: 3.9 nM | EC50 [7]: 0.04 nM | EC50 [8]: > 10000 nM | EC50 ([9]; Vero): 5.92 nM

C=Cc1cc2nnn(-c3ccc(OC(C)C)cc3)c2cc1-c1ccc(OC(C)C)cc1 [Example C25, 1,6-bis(4-isopropoxyphenyl)-5-vinyl-1H-benzo[d][1,2,3]triazole]
CC50 [4]: 3870 nM | EC50 [5]: 1.47 nM | EC50 [6]: 6.78 nM | EC50 [7]: 0.3 nM | EC50 [8]: > 10000 nM | EC50 ([9]; Vero): 8.01 nM

CC(C)Oc1ccc(-n2nnc3ccc(-c4cccc(C(C)(C)O)c4)cc32)cc1 [Example C17, 2-(3-(1-(4-isopropoxyphenyl)-1H-benzo[d][1,2,3]triazol-6-yl)phenyl)propan-2-ol]
CC50 [4]: 10500 nM | EC50 [5]: 12.2 nM | EC50 [6]: 15.8 nM | EC50 [7]: > 25 nM | EC50 [8]: > 10000 nM | EC50 ([9]; Vero): > 25 nM

Cc1cc2ncc(-c3ccc(C(C)(C)O)cc3)n2cc1-c1ccc(C(C)(C)O)cc1 [Example B9, 2,2′-((7-methylimidazo[1,2-a]pyridine-3,6-diyl)bis(4,1-phenylene))bis(propan-2-ol)]
EC50 [5]: > 25 nM | EC50 [6]: > 25 nM | EC50 [7]: > 25 nM | EC50 [8]: > 10000 nM | EC50 ([9]; Vero): 16.1 nM

Cc1nc2ncc(-c3ccc(OC(C)C)cc3)n2cc1-c1ccc(OC(C)C)cc1 [Example D27, 3,6-bis(4-isopropoxyphenyl)-7-methylimidazo[1,2-a]pyrimidine]
CC50 [4]: 2180 nM | EC50 [5]: 0.78 nM | EC50 [6]: 0.75 nM | EC50 [7]: 0.85 nM | EC50 [8]: > 10000 nM | EC50 ([9]; Vero): 0.2 nM
